This assay addresses T1, mitochondrial calcium/sodium antiporter (Rattus norvegicus, UniProt Q6AXS0).
T1 sequence (Q6AXS0 1-585): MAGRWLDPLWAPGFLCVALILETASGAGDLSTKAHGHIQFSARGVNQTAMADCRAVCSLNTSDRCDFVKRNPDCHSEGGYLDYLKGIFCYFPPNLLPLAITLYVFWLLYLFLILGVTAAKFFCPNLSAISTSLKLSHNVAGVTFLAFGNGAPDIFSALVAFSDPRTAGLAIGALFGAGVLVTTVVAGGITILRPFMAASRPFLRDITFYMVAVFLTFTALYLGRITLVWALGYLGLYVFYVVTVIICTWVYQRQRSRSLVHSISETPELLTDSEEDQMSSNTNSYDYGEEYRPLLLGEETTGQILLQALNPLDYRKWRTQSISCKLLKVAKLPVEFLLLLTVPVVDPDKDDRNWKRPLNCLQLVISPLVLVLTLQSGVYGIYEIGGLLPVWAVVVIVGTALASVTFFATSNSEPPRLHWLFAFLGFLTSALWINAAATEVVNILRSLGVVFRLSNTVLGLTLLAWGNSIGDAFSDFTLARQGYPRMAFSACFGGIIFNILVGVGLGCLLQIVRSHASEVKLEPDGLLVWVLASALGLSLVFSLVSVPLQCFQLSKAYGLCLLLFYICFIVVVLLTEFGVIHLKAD
Kind of assay: Inhibition of mitochondrial calcium/sodium antiporter activity (NaCl-induced mitochondrial calcium efflux, calcium green 5N fluorescence). In kind it is cell-based. To be noted: digitonin-permeabilized INS-1 cells, 20 mM NaCl. The method, then:
INS-1 rat insulinoma cells (see Example 16) were harvested by trypsinization, washed and resuspended at 10×10^6 cells/ml in assay buffer (250 mM sucrose, 10 mM HEPES, 2.5 mM K2HPO4, 5 mM succinate, pH 7.4) containing 0.007% digitonin, 60 μM CaCl2 and 0.05 μM calcium green 5N (Molecular Probes, Inc., Eugene, Oreg.). After a five-minute calcium loading incubation, ruthenium red (1 μM; Sigma, St. Louis, Mo.) was added to block further calcium uptake by mitochondria. Cell suspensions were dispensed into 96-well plates (100 μl per well, 1×10^6 cells per well) and candidate agents (i.e., candidate mitochondrial calcium/sodium antiporter inhibitors) were added to some sets of triplicate wells at concentrations of 1, 10 or 100 μM, while other sets of wells provided appropriate control conditions (e.g., buffer and vehicle controls). Baseline fluorescence measurements were made using a multiwell plate fluorimeter (F-MAX™, Molecular Devices Corp., Sunnyvale, Calif.; or PolarStar™, BMG Labtechnologies, Inc., Durham, N.C.) according to the manufacturer's instructions. Calcium efflux from mitochondria was then induced by adding NaCl to all wells to achieve a final concentration of 20 mM, and the rate of change in fluorescence in each well was monitored […] for two minutes and quantified using software included with the plate reader.

Where [1] appears, read: Table 3, more preferred compounds, read-out: IC50 ≦ 1 μM.
[2] abbreviates: Table 2, preferred compounds, read-out: IC50 ≦ 10 μM.

Like-named read-outs stand apart in the source and are kept apart here.

As to `Nc1ccc(Cl)cc1C(SCCNC(=O)c1ccc2c(c1)OCO2)C1CCCCC1` (stereo not shown) [Compound 16w], the IC50 under setting [1] is not above 1 µM.
`CS(=O)(=O)c1ccc(C(=O)NCCSC(c2cc(Cl)ccc2N)C2CCCCC2)cc1` (stereo not shown) [Compound 16x]: the IC50 under setting [1] was not above 1 µM.
Regarding `Nc1ccc(Cl)cc1C(SCCNC(=O)c1ccc(S(N)(=O)=O)cc1)C1CCCCC1` (stereo not shown) [Compound 16y], under setting [2], the IC50 was not above 10 µM.
For `COc1ccc(C(=O)NCCSC(c2cc(Cl)ccc2N)C(C)C)cc1OC` (stereo not shown) [Compound 16z], the IC50 under setting [1] is not above 1 µM.
On to `Nc1ccc(Cl)cc1C(SCCNC(=O)Nc1cccc(F)c1)c1ccccc1Cl` (stereo not shown) [Compound 17a], for which the IC50 under setting [2] is not above 10 µM.
For `Nc1ccc(Cl)cc1C(SCCNC(=O)Nc1ccccc1OC(F)(F)F)c1ccccc1Cl` (stereo not shown) [Compound 17b], the half-maximal inhibitory concentration (IC50) was not above 10 µM under setting [2] and not above 1 µM under setting [1].
On to `Nc1ccc(Cl)cc1C(SCCNC(=O)Nc1cc(F)ccc1F)c1ccccc1Cl` (stereo not shown) [Compound 17d], for which the IC50 under setting [2] was not above 10 µM.
On the same count and under the same terms, with `Nc1ccc(Cl)cc1C(SCCNC(=O)Nc1cccc(Cl)c1Cl)c1ccccc1Cl` (stereo not shown) [Compound 17e] the figure was not above 10 µM.
As to `COc1ccc(NC(=O)NCCSC(c2cc(Cl)ccc2N)c2ccccc2Cl)c(OC)c1` (stereo not shown) [Compound 17f], the IC50 runs as follows: under setting [2], not above 10 µM; under setting [1], not above 1 µM.
For `COc1ccc(NC(=O)NCCSC(c2cc(Cl)ccc2N)C2CCCCC2)c(OC)c1` (stereo not shown) [Compound 17g], the IC50 under setting [1] is not above 1 µM.
As to `COc1cc(NC(=O)NCCSC(c2cc(Cl)ccc2N)C2CCCCC2)cc(OC)c1OC` (stereo not shown) [Compound 17h], under setting [1], the IC50 is not above 1 µM.
Regarding `COc1cc(NC(=S)NCCSC(c2cc(Cl)ccc2N)C2CCCCC2)cc(OC)c1OC` (stereo not shown) [Compound 17i], the IC50 under setting [1] is not above 1 µM.
On to `COc1ccc(NC(=O)NCCSC(c2cc(Cl)ccc2N)C2CCCCC2)cc1OC` (stereo not shown) [Compound 17j], for which the 50% inhibitory concentration (IC50) under setting [1] was not above 1 µM.
As to `COc1ccc(NC(=S)NCCSC(c2cc(Cl)ccc2N)C2CCCCC2)c(OC)c1` (stereo not shown) [Compound 17k], the IC50 under setting [1] is not above 1 µM.
Turning to `Nc1ccc(Cl)cc1C(SCCNS(=O)(=O)c1ccccc1)c1ccccc1Cl` (stereo not shown) [Compound 18b], the IC50 reads like this: under setting [2], not above 10 µM; under setting [1], not above 1 µM.
In the case of `Nc1ccc(Cl)cc1C(SCCNS(=O)(=O)c1ccccc1[N+](=O)[O-])c1ccccc1Cl` (stereo not shown) [Compound 18c], the IC50 was not above 10 µM under setting [2] and not above 1 µM under setting [1].
For `Nc1ccc(Cl)cc1C(SCCNS(=O)(=O)c1ccc(OC(F)(F)F)cc1)c1ccccc1Cl` (stereo not shown) [Compound 18d], the IC50 under setting [2] is not above 10 µM.
For `CS(=O)(=O)NCCSC(c1cc(Cl)ccc1N)c1ccccc1Cl` (stereo not shown) [Compound 18e], the IC50 runs as follows: under setting [2], not above 10 µM; under setting [1], not above 1 µM.
Turning to `COc1ccc(S(=O)(=O)NCCSC(c2cc(Cl)ccc2N)C2CCCCC2)cc1OC` (stereo not shown) [Compound 18f], the half-inhibitory concentration (IC50) under setting [1] is not above 1 µM.
In the case of `COc1ccc(S(=O)(=O)NCCSC(c2cc(F)ccc2N)C2CCCCC2)cc1OC` (stereo not shown) [Compound 18g], the 50% inhibitory concentration (IC50) under setting [1] is not above 1 µM.
With `COC(=O)CSCC(c1cc(Cl)ccc1N)c1ccccc1Cl` (stereo not shown) [Compound 20a], the half-inhibitory concentration (IC50) under setting [2] was not above 10 µM.
Take `COC(=O)CSCC(c1cc(Cl)ccc1N)c1ccccc1F` (stereo not shown) [Compound 20b]: the IC50 under setting [2] is not above 10 µM and the IC50 under setting [1] is not above 1 µM.
`COC(=O)CSCC(c1cc(Br)ccc1N)c1ccccc1F` (stereo not shown) [Compound 20c]: the IC50 by setting is: under setting [2], not above 10 µM; under setting [1], not above 1 µM.
For `COC(=O)CSCC(c1ccccc1)c1cc(Cl)ccc1N` (stereo not shown) [Compound 20d], the IC50 by setting is: under setting [2], not above 10 µM; under setting [1], not above 1 µM.
For the compound `NC(=O)CSCC(c1cc(Cl)ccc1N)c1ccccc1Cl` (stereo not shown) [Compound 21a], the IC50 under setting [2] was not above 10 µM.
Consider `NC(=O)CSCC(c1ccccc1)c1cc(Cl)ccc1N` (stereo not shown) [Compound 21d], for which the IC50 was not above 10 µM under setting [2] and not above 1 µM under setting [1].
Regarding `CNC(=O)CSCC(c1cc(Cl)ccc1N)c1ccccc1Cl` (stereo not shown) [Compound 21e], the half-maximal inhibitory concentration (IC50) was not above 10 µM under setting [2] and not above 1 µM under setting [1].
For the compound `CNC(=O)CSCC(c1cc(Cl)ccc1N)c1ccccc1F` (stereo not shown) [Compound 21f], the IC50 is not above 10 µM under setting [2] and not above 1 µM under setting [1].
As for `CNC(=O)CSCC(c1cc(Br)ccc1N)c1ccccc1F` (stereo not shown) [Compound 21g], under setting [2], the IC50 is not above 10 µM.
As for `CNC(=O)CSCC(c1ccccc1)c1cc(Cl)ccc1N` (stereo not shown) [Compound 21h], the IC50 is not above 10 µM under setting [2] and not above 1 µM under setting [1].
Take `Cc1noc(CSCC(c2cc(Cl)ccc2N)c2ccccc2Cl)n1` (stereo not shown) [Compound 22a]: the IC50 is not above 10 µM under setting [2] and not above 1 µM under setting [1].
Consider `Cc1noc(CSCC(c2cc(Cl)ccc2N)c2ccccc2F)n1` (stereo not shown) [Compound 22b], for which the IC50 is, setting by setting: under setting [2], not above 10 µM; under setting [1], not above 1 µM.
Regarding `Cc1noc(CSCC(c2cc(Br)ccc2N)c2ccccc2F)n1` (stereo not shown) [Compound 22c], the IC50 under setting [2] is not above 10 µM.
For `Cc1noc(CSCC(c2ccccc2)c2cc(Cl)ccc2N)n1` (stereo not shown) [Compound 22d], the IC50 runs as follows: under setting [2], not above 10 µM; under setting [1], not above 1 µM.
Regarding `COC(=O)C(c1cccc(Cl)c1)c1ccccc1[N+](=O)[O-]` (stereo not shown) [Compound 25a], the IC50 under setting [2] was not above 10 µM.
For the compound `CCOC(=O)C(c1ccccc1C)c1ccccc1[N+](=O)[O-]` (stereo not shown) [Compound 25b], the IC50 is not above 10 µM under setting [2] and not above 1 µM under setting [1].
For the compound `COC(=O)C(c1ccccc1)c1ccccc1[N+](=O)[O-]` (stereo not shown) [Compound 25c], the IC50 under setting [2] was not above 10 µM.
With `COC(=O)C(c1ccccc1[N+](=O)[O-])c1cccc2ccccc12` (stereo not shown) [Compound 25d], the half-maximal inhibitory concentration (IC50) was not above 10 µM under setting [2] and not above 1 µM under setting [1].
Take `CNC(=O)C(c1cccc(Cl)c1)c1ccccc1[N+](=O)[O-]` (stereo not shown) [Compound 26a]: under setting [2], the IC50 is not above 10 µM.
For the compound `O=C(NCCc1ccccc1)C(c1cccc(Cl)c1)c1ccccc1[N+](=O)[O-]` (stereo not shown) [Compound 26b], the IC50 is, setting by setting: under setting [2], not above 10 µM; under setting [1], not above 1 µM.
Take `O=[N+]([O-])c1ccccc1C(CNCCc1ccccc1)c1cccc(Cl)c1` (stereo not shown) [Compound 27b]: the IC50 runs as follows: (IC50 ≦ 1 μM, Table 3, more preferred compounds) not above 1 µM; (IC50 ≦ 10 μM, Table 2, preferred compounds) not above 10 µM.
On to `COC(=O)CN(C)CC(c1cccc(Cl)c1)c1ccccc1[N+](=O)[O-]` (stereo not shown) [Compound 28a], for which, under setting [2], the IC50 was not above 10 µM.
As for `COC(=O)CSC(c1ccccc1C)c1ccccc1NC(=O)c1ccccc1` (stereo not shown) [Compound 34c], the IC50 under setting [2] is not above 10 µM.
Regarding `CNCCSCC(c1cc(Cl)ccc1N)c1ccccc1F` (stereo not shown) [Compound 35f], under setting [2], the IC50 was not above 10 µM.
As to `Nc1ccc(Br)cc1C(CSCc1nc2ccccc2[nH]1)c1ccccc1F` (stereo not shown) [Compound 37a], the IC50 under setting [2] was not above 10 µM.
`Cc1noc(C[S+]([O-])CC(c2cc(Cl)ccc2N)c2ccccc2Cl)n1` (stereo not shown) [Compound 38a]: under setting [2], the IC50 was not above 10 µM.
Regarding `Nc1ccc(Cl)cc1C(c1ccccc1Cl)[S+]([O-])CC(=O)NCC(c1ccccc1)c1ccccc1` (stereo not shown) [Compound 38c], the IC50 runs as follows: under setting [2], not above 10 µM; under setting [1], not above 1 µM.
In the case of `COc1ccc(S(=O)(=O)N2CCC(CSC(c3cc(Cl)ccc3N)C3CCCCC3)CC2)cc1OC` (stereo not shown) [Compound 40], under setting [1], the IC50 is not above 1 µM.
For `COc1cc(C(=O)N2CCC(CSC(c3cc(Cl)ccc3N)C3CCCCC3)CC2)cc(OC)c1OC` (stereo not shown) [Compound 41a], the IC50 under setting [2] is not above 10 µM.
Turning to `COc1cc(C(=O)N2CCC(CSC(c3cc(F)ccc3N)C3CCCCC3)CC2)cc(OC)c1OC` (stereo not shown) [Compound 41b], under setting [1], the IC50 is not above 1 µM.

For orientation: IC50 means the midpoint of a concentration-inhibition curve.

Values taken from patent US6958352B2, “Compounds for inhibiting insulin secretion and methods related thereto” (SmithKline Beecham Corporation, priority 2002, dated 2005).
